Structures can show the parent of a compound that is named as a salt.
Legend:
LPS induced hypotension = assay: Endotoxin (LPS) induced hypotension in rats; assay type: in vivo, rat (male Wistar); conditions: anesthetized rats; 10 ug/kg intraarterially 5 minutes after LPS 15 mg/kg I.V.
Procedure: Bacterial cell wall lipopolysaccharide from E. coli strain 0111:B4 (Sigma #L-2630) was dissolved in saline at a concentration of 3.75 mg/ml and administered to rats at 15 mg/kg I.V. Test compounds were dissolved in saline at 1 mg/ml, diluted to 10 ug/ml, and injected intraarterially at 1 ml/kg (10 ug/kg). Male wistar strain rats were obtained from Charles River Labs and maintained according to ALAC standards. They were anesthetized with 30 mg/kg pentobarbital ip with supplementation as needed. The throat was opened, the left carotid artery was cannulated with PE-10 tubing and the trachea cannulated with 0.100 O.D. tubing. Ventilation was maintained by a Harvard Apparatus small animal pump at a rate sufficient to nearly abolish spontaneous respiration.

PAF receptor [1] = target: T1, PAF receptor (Homo sapiens, UniProt P25105); assay: Inhibition of PAF-induced aggregation in human platelet rich plasma; assay type: cell-based; conditions: PAF challenge 1E-6M, number of experiments in parentheses
T1 construct: Blood from healthy volunteers was collected; endogenous in cells; host or cells: human platelets (healthy volunteers)
T1 sequence (P25105 whole entry): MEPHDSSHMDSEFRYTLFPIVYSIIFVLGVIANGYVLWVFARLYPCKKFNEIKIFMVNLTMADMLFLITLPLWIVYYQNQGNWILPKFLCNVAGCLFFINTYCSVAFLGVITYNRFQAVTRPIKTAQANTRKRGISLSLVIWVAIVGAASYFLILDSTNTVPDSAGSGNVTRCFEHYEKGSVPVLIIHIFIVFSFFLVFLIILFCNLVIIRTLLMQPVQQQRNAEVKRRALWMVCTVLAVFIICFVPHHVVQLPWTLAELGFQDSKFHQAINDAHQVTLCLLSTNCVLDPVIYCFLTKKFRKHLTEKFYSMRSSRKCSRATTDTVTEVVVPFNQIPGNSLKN
Procedure: (§1) Test compounds were evaluated as PAF receptor antagonists in vitro by measuring inhibition of PAF (platelet activating factor) induced platelet aggregation. Platelet aggregation was measured by a modification of the method described in A. Wissner, et. al., J. Med. Chem., 27, 1174, 1984.
(§2) L-PAF was obtained from Calbiochem. A stock solution of 1-2 E-3M was prepared in 10% ethanol in water or 100% methanol and serial working dilutions were made using phosphate buffered saline (PBS). 1-2 E-3M stock solutions of test compounds were prepared in 100% methanol and serially diluted in PBS. All solutions were made up in plastic tubes, stored on ice and protected from heat and light. Solutions were prepared fresh or frozen at -20° C. and used within 48 hours.
(§3) Incubation mixtures consisted of 400 μl PRP, 50 μl of PBS diluent or test compound and 50 μl of PAF agonist. More specifically, 400 μl of PRP was stabilized in a cuvette for 1-2 minutes at 37° C. in the aggregometer to achieve a stable baseline, then 50 μl of PBS or test compound, was added and incubated for 5 minutes before addition of the challenge concentration of PAF (final concentration of 5E-8M or 1E-7M, as determined from the dose response curve for PAF for that experiment). Aggregation was monitored for 5 minutes. Samples containing test compound or diluent were run simultaneously for comparison. Test compounds were initially evaluated at a screening concentration of 1E-5M.
The recording equipment consisted of a dual channel Chronolog aggregometer connected to a dual channel 10 MV full scale deflection Omniscribe chart recorder (Houston Instruments). […] The bead suspension was used to set the 0% light transmission mark and clear water was used to set the 100% light transmission mark. These limits defined a full scale deflection. The aggregation traces were analyzed by a digitizing method (C. Kohler and B. Zoltan, J. Pharm. Methods, 12, 113, 1984) with x, y coordinate data stored in a computer file. A suitable program computed parameters of interest such as the magnitude of aggregation.
In some experiments, human PRP was used instead of rabbit PRP. Blood from healthy volunteers was collected in Vacutainers® containing the Na citrate diluent and processed in a manner similar to rabbit blood to obtain the PRP. For these experiments, the challenge concentration of PAF was 1E-6M.

PAF induced lethality = PAF induced lethality in mice; assay type: in vivo; conditions: I.P. 10 mg/kg; corrected for control lethality
Procedure: PAF given I.V. to mice causes an immediate hypotensive shock leading to death in 1 hour or less. Compounds were given intraperitoneally or P.O. at various times before the PAF challenge. Animals alive after 2 hours were counted and the activity of test compounds expressed as % survival corrected for any control (saline treated) animals which survived the PAF challenge.

PAF receptor [2] = target: T2, PAF receptor (Oryctolagus cuniculus, UniProt G1TEI7); assay: Inhibition of PAF-induced aggregation in washed rabbit platelets; assay type: cell-based; conditions: PAF challenge 5E-9M, number of experiments in parentheses
T2 construct: endogenous in cells; host or cells: rabbit platelets (male New Zealand White)
T2 sequence (G1TEI7 1-342): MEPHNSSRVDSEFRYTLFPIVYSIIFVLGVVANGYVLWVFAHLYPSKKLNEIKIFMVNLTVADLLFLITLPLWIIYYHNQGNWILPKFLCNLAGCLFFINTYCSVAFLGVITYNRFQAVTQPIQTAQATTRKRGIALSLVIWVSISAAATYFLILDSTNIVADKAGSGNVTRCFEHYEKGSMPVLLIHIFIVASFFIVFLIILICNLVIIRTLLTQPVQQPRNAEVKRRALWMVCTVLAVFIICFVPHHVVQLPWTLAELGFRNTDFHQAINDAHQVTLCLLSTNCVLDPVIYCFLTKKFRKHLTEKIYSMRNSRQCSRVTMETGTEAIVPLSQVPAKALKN
Procedure: as §1, §2
as §3, with “More” for “Incubation mixtures consisted of 400 μl PRP, 50 μl of PBS diluent or test compound and 50 μl of PAF agonist. More”, “400 μl of PRP was stabilized in a cuvette” left out, “1E-5M. […]” for “1E-5M.”

Structure (SMILES): CCCCCCCCCCCCCCOc1cccc(OP(=O)([O-])Oc2cccc(C[n+]3csc(C)c3)c2)c1OC [3-[[3-[[Hydroxy[2-methoxy-3-(tetradecyloxy)phenoxy]-phosphinyl]oxy]phenyl]methyl]-5-methyl-thiazolium, hydroxide, inner salt]
- % reversal of LPS induced hypotension (fall in mean arterial pressure) (LPS induced hypotension): 84%
- IC50 (PAF receptor [1]): 31 µM
- PAF induced lethality, % protection (PAF induced lethality): 17%
- IC50 (PAF receptor [2]): 5.49 nM

From patent publication US5231091A, “Bis-arylphosphate ester antagonists of platelet activating factor” (priority 1992, dated 1993)
